Measured values taken from patent US8956824B2, “Methods for identifying allosteric modulators of ship polypeptides” (British Columbia Cancer Agency Branch, priority 2006, dated 2015).
Entries after “also recorded” stand apart in the source; their conditions may differ.

Columns and labels:
[1] = system: DNFB-induced ear inflammation; assay: Mouse acute cutaneous anaphylaxis model; format: in vivo; conditions: topical
Protocol: Mouse acute cutaneous anaphylaxis model. 6-8 week old CD1 mice (University of British Columbia Animal Facility, Vancouver, BC) were sensitized to the hapten DNP by cutaneous application of 25 μL of 0.5% dinitroflourobenzene (DNFB) (Sigma, Oakville, Ont) in acetone to the shaved abdomen of mice for two consecutive days. In the AQX-016A experiments shown in FIG. 2F, 20 μCi of tritiated thymidine [3H]-Tdr (GE Healthcare, Piscataway, N.J.) was injected EP one week after the first DNFB application. [3H]-Tdr labels rapidly dividing cells of the mouse, including neutrophils (21). […] The resulting inflammatory cell infiltration was quantitated by taking a 6mm diameter punch from the ear 1 hr later for dissolution in SOLVABLE™ (Perkin Elmer-Packard, Woodbridge, Ont) and liquid scintillation counting as described (21). The ability of test substances to inhibit mast cell degranulation was then determined by calculating the ratio of [3H]-Tdr in the test (right) ear vs the control (left) ear as described (21). […]
In the later AQX-MN100 experiments, shown in FIG. 3E, the mice were sensitized as above with DNFB. […] Optical density readings at 450 nm were taken over 10 min at 30 s intervals. MPO activity was calculated as described (22) and expressed as Units per mg of protein per mL of lysate. […]

SHIP1 enzyme = target: T1, SHIP1 enzyme (Mus musculus, UniProt Q9ES52); assay: In vitro SHIP enzyme assay, wild-type SHIP1; format: biochemical; conditions: for SHIP1 enzyme activity in vitro (activation): FIG. 1A / 3B; for activation of wild-type SHIP1 enzyme by allosteric activators: PI-3,4-P2 20 μM, AQX-MN100 80 μg/mL=250 μM, 30 μM IP4, FIG. 4B
T1 construct: Full length, wild-type SHIP1 enzyme (wt); made in house; host or cells: 293T cells, transient transfection with pME18S-His-SHIP
T1 sequence (Q9ES52 1-1191): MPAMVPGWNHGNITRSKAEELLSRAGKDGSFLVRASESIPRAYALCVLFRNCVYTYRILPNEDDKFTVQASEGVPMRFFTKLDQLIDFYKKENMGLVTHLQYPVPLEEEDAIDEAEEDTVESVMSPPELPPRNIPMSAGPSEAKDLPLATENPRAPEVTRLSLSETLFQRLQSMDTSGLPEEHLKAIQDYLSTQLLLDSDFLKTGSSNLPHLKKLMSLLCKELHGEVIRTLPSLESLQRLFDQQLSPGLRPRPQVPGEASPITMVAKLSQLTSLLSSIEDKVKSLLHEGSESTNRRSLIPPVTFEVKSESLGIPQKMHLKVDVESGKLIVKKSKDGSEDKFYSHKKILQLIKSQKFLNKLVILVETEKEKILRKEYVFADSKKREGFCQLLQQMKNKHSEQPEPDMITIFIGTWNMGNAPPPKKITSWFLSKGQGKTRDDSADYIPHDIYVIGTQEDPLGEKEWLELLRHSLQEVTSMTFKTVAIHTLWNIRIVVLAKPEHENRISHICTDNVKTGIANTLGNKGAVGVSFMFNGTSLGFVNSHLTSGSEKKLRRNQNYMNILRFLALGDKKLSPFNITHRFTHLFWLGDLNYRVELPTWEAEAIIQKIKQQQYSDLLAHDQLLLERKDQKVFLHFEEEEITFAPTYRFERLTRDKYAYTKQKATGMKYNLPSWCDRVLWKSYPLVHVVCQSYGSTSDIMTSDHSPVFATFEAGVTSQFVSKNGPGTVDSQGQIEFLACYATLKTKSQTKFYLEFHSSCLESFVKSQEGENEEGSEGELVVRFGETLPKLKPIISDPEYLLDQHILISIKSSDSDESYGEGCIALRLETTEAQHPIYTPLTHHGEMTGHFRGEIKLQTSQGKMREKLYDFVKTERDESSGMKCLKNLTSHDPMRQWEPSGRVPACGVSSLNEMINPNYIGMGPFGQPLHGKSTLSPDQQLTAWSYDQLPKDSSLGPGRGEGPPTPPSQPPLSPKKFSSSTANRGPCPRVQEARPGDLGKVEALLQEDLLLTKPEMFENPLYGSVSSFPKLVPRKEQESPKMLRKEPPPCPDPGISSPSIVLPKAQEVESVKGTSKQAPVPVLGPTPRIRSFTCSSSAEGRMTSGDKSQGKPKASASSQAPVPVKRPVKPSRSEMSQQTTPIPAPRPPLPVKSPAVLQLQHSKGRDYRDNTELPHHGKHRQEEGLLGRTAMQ
Text: Production of recombinant SHIP1 enzyme and SHIP1 C2 and PH domains: Recombinant, N-terminal His6 tagged SHIP1 enzyme was expressed in mammalian 293T cells by transient transfection with pME18S-His-SHIP plasmid and purified to >95% homogeneity by Nichelating bead chromatography (Qiagen, Mississauga, Ontario) as assessed by Coomassie Blue visualization of sodium dodecyl sulfate-polyacrylamide gel electrophoresis (SDS-PAGE) separated material. Recombinant SHIP1 C2 domain (amino acid residues 725 to 863) or SHIP1 PH domain (amino acid residues 984-1319) were expressed in E. coli transformed with a pET28C expression vector constructed as described herein. Cultures were induced overnight with 1 mM IPTG, and protein purified from the cell lysates by Ni-chelating bead chromatography was >95% pure by SDS-PAGE analysis.
In vitro SHIP enzyme assay. The SHIP enzyme assay was performed in 96-well microtitre plates with 10 ng of enzyme/well in a total volume of 25 μL of 20 mM Tris HCl, pH 7.5 and 10 mM MgCl2. […] The reaction was allowed to proceed for 20 min at 37° C. and the amount of inorganic phosphate released assessed by the addition of Malachite Green reagent followed by an absorbance measurement at 650 nm (15). SHIP2 enzyme was purchased from Echelon Biosciences (Salt Lake City, Utah) and an equivalent amount of inositol phosphatase activity was used in the in vitro enzyme assay. Enzyme data are expressed as the mean of triplicates+/−SEM. Experiments were performed at least 3 times.

LPS-induced plasma TNFα = assay: Mouse septicemia model; format: in vivo; conditions: for plasma TNFα level after LPS challenge: oral, 30 min prior to IP 2 mg/kg LPS, blood 2 h later, AQX-016A 20 mg/kg
Text: Mouse septicemia model. […] Blood was drawn 2 hrs later for determination of plasma TNFα by ELISA. Results are representative of 3 independent experiments.

| Compound | allergen-induced inflammation (inflammatory cell recruitment to ear, [3H]-Tdr) ([1]; 30 min prior to DNFB, vs vehicle control-treated ear) | activation of SHIP1 relative to Pelorol (SHIP1 enzyme; 40 μg/mL, FIG. 1A) [fold] | SHIP1 enzyme activity in vitro (activation) (SHIP1 enzyme) | bioavailability (LPS-induced plasma TNFα; concluded from septicemia (oral) and cutaneous anaphylaxis (topical) models) | plasma TNFα level after LPS challenge (LPS-induced plasma TNFα) | myeloperoxidase (MPO) levels in ears of allergen-challenged mice ([1]; P-value <0.02 vs vehicle) | enhancement of SHIP1 enzyme activity (SHIP1 enzyme; % change relative to vehicle control, 2 μM final concentration, FIGS. 8A-B) [%] | activation of wild-type SHIP1 enzyme by allosteric activators (SHIP1 enzyme) | activation of wild-type SHIP1 enzyme by allosteric activators (SHIP1 enzyme; listed as PI(3,4)P2) |
| --- | --- | --- | --- | --- | --- | --- | --- | --- | --- |
| Cc1cc(O)c(O)c2c1[C@]1(C)CC[C@H]3C(C)(C)CCC[C@]3(C)[C@H]1C2 [AQX-016A] | dramatically inhibited allergen-induced inflammation | 3 | increases SHIN enzyme activity in vitro and in vivo | both orally and topically bioavailable | reduced the level of TNFα to the same extent as the control |  |  |  |  |
| Cc1cc(O)cc2c1[C@]1(C)CC[C@H]3C(C)(C)CCC[C@]3(C)[C@H]1C2 [AQX-MN100] |  |  | enhanced SHIP1 enzyme activity in vitro; also recorded: activates SHIP enzyme activity in vitro |  | efficiently inhibited the LPS-induced elevation of plasma TNFα levels; also recorded: inhibits LPS-induced plasma TNFα levels in mice | reduced the levels of the inflammatory cell (neutrophil) specific myeloperoxidase enzyme; also recorded: inhibits DNFB-induced MPO in sensitized mice | ~500 | activated SHIP to the same extent; also recorded: enhanced |  |
| phosphatidylinositol-3,4-bisphosphate [PI-3,4-P2, reference compound] |  |  |  |  |  |  |  | activated SHIP to the same extent as AQX-MN100 | enhanced |
